# Reference: US20210379009A1, “ANTIBACTERIAL AGENT AGAINST ENTEROBACTERIUM WHICH CONTAINS EQUOL AS ACTIVE INGREDIENT” (priority 2018, published 2021)
# Legend:
# Assay type in all cases: cell-based
# [1] = tested on: Escherichia coli (E. coli); assay: Growth inhibition on other bacterial species: Escherichia coli; conditions: 100 μg/mL; FIG. 4
# [2] = tested on: Clostridioides difficile; assay: Inhibition of sporulation of Clostridioides difficile (spore count); conditions: 100 μg/mL; added to medium grown to a saturated state; from day 2; FIG. 6
# Experimental: To validate the influence of equol (100 μg/mL) on the sporulation of Clostridioides difficile, equol was added to a medium in which Clostridioides difficile had grown to a saturated state, and the number of spores formed was counted.
# [3] = tested on: Clostridioides perfringens (C. perfringens (Clostridium perfringens)); conditions: 100 μg/mL; FIG. 4
# [4] = tested on: Clostridioides difficile (NAP1/027 strain); assay: Influence on form of Clostridioides difficile (Gram staining); conditions: 100 μg/mL; after 8-day culture; FIG. 5
# Experimental: The influence of equol on the form of Clostridioides difficile (NAP1/027 strain) was validated through staining of Clostridioides difficile with Gram staining under the action of equol (100 μg/mL) in the same manner as in Example 1.
# [5] = tested on: Clostridioides difficile (NAP1/027 strain); assay: Growth inhibition on Clostridioides difficile NAP1/027 strain (OD600); conditions: for inhibition of the growth of Clostridioides difficile versus control: FIG. 2
# Experimental: Clostridioides difficile (NAP1/027 strain) was added to a medium containing equol in a concentration of 100 μg/mL, 75 μg/mL, 50 μg/mL, or 25 μg/mL (0 hour), and subsequently cultured to check the influence on the growth for 24 hours after the start of culture. The culture performed was totally under anaerobic conditions at 35° C.
# Because equol dissolved in DMSO was used, a medium with addition only of DMSO was additionally subjected to measurement as a control.
# The growth of the bacterium was examined by measuring the absorbance of each medium at 600 nm (OD600).
# Equol is a final product generated from daidzin through daidzein and dihydrodaidzein. Inhibition of the growth of Clostridioides difficile by equol (100 μg/mL, 50 μg/mL), daidzein (50 μg/mL), and dihydrodaidzein (100 μg/mL, 50 μg/mL) was measured in the same manner as in Example 1.
# [6] = tested on: Bacteroides fragilis (B. fragilis); assay: Growth inhibition on other bacterial species: Bacteroides fragilis; conditions: 100 μg/mL
SMILES,influence on growth of Escherichia coli [1],number of spores formed versus control [2],influence on growth of Clostridioides perfringens [3],form of cells (Gram staining) versus control [4],inhibition of the growth of Clostridioides difficile versus control ([5]; 50 μg/mL),inhibition of the growth of Clostridioides difficile versus control ([5]; 100 μg/mL),"concentration dependence of growth inhibition ([5]; equol 25 to 100 μg/mL, FIG. 1)","growth of Clostridioides difficile (OD600) versus control ([5]; equol 100, 75, 50 or 25 μg/mL, 24 hours, anaerobic, 35° C., DMSO control, FIG. 1)","proliferation of Bacteroides fragilis ([6]; 52 hours of the test, FIG. 4)",viability of Bacteroides fragilis after transfer into a medium without equol ([6]; transferred at the end of 52 hours of the test)
"Oc1ccc([C@H]2COc3cc(O)ccc3C2)cc1 (stereo in doubt) [equol, 4′,7-isoflavandiol]",no influence was found,few spores,An influence was observed,forms longer and thinner than those of cells in the control,inhibited the growth of Clostridioides difficile to the same degree,an even higher degree of inhibition than them,the inhibition depended on the concentration of equol,slower than that in the control,completely no proliferation,"only the growth was inhibited, without killing the bacterium"
"O=c1c(-c2ccc(O)cc2)coc2cc(O)ccc12 [daidzein, reference compound]",,,,,no clear difference from the control,,,,,
"O=C1c2ccc(O)cc2OCC1c1ccc(O)cc1 (stereo not shown) [dihydrodaidzein, reference compound]",,,,,no clear difference from the control,inhibited the growth of Clostridioides difficile to the same degree,,,,
